The values that follow come from US12590062B2, “PD-1/PD-L1 inhibitors” (Gilead Sciences, Inc., priority 2017, dated 2026).

In the experiment the target is T1, PD-1/PD-L1 interaction (Homo sapiens, UniProt Q9NZQ7).
T1 construct: expressed in transfected cells; host or cells: CHO cells (aAPC-PD-L1) co-cultured with Jurkat cells overexpressing PD-1 and an NFAT-luciferase reporter
T1 sequence (Q9NZQ7 19-290): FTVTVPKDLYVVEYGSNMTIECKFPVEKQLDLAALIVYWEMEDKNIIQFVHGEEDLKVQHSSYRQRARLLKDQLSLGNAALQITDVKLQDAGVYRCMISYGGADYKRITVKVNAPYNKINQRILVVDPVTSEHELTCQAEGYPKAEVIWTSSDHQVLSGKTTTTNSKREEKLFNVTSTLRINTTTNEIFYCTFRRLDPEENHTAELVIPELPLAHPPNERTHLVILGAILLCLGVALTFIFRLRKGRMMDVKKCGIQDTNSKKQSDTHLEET
Description: PD-1/PD-L1 NFAT reporter co-culture assay. The class given is cell-based. Conditions: Jurkat PD-1 NFAT-luciferase cells co-cultured with aAPC-PD-L1 CHO cells, 6 hrs at 37° C.; read-out: EC50 NFAT Luciferase. The procedure:
PD-1/PD-L1 NEAT Reporter Assay:
Compounds were tested in afunctional co-culture reporter assay in which TCR-mediated NFAT activity is inhibited by the engagement of PD-1 with PD-L1. […] CHO cells expressing surface-bound anti-CD3 antibodies and PD-L1 (artificial antigen presenting cells, aAPC-PD-L1) were first seeded overnight. Jurkat cells overexpressing PD-1 and expressing a luciferase construct under NFAT control are diluted in RPMI assay medium (RPMI 1640 with 2% FBS), mixed with compounds, and immediately seeded on the monolayer of aAPC-PD-L1. The co-culture is then incubated for 6 hrs at 37° C. Luciferase activity is assessed by adding the ONE-Glo reagent and measuring luminescence with a plate reader. EC50 values are calculated from the fit of the dose-response curves to a four-parameter equation (Table 3).
One may read the EC50 as the concentration that produces a half-maximal response. `COc1nc(OCc2cccc(-c3cccc(COc4nc(OC)c(CNC(C)C(=O)N(C)C)cc4Cl)c3C)c2C)c(Cl)cc1CNC(C)C(=O)N(C)C` (stereo not shown) [Example 83, 2,2′-((((((2,2′-dimethyl-[1,1′-biphenyl]-3,3′-diyl)bis(methylene))bis(oxy))bis(5-chloro-2-methoxypyridine-6,3-diyl))bis(methylene))bis(azanediyl))bis(N,N-dimethylpropanamide)]: the concentration giving a half-maximal response (EC50) came out at 1.68 µM. As to `COc1nc(OCc2cccc(-c3cccc(COc4nc(OC)c(CNC56CC(C(=O)O)(C5)C6)cc4Cl)c3C)c2C)c(Cl)cc1CNC12CC(C(=O)O)(C1)C2` [Example 85, 3,3′-((((((2,2′-dimethyl-[1,1′-biphenyl]-3,3′-diyl)bis(methylene))bis(oxy))bis(5-chloro-2-methoxypyridine-6,3-diyl))bis(methylene))bis(azanediyl))bis(bicyclo[1.1.1]pentane-1-carboxylic acid)], the EC50 is 9.77 µM.

As to `COc1nc(OCc2cccc(-c3cccc(COc4nc(OC)c(CN[C@H](C(=O)O)c5ccccc5)cc4Cl)c3C)c2C)c(Cl)cc1CN[C@H](C(=O)O)c1ccccc1` [Example 86, (2S,2′S)-2,2′-((((((2,2′-dimethyl-[1,1′-biphenyl]-3,3′-diyl)bis(methylene))bis(oxy))bis(5-chloro-2-methoxypyridine-6,3-diyl))bis(methylene))bis(azanediyl))bis(2-phenylacetic acid)], the EC50 is at least 50 µM. Consider `COc1nc(OCc2cccc(-c3cccc(COc4nc(OC)c(CNC5(C(=O)O)COC5)cc4Cl)c3C)c2C)c(Cl)cc1CNC1(C(=O)O)COC1` [Example 87, 3,3′-((((((2,2′-dimethyl-[1,1′-biphenyl]-3,3′-diyl)bis(methylene))bis(oxy))bis(5-chloro-2-methoxypyridine-6,3-diyl))bis(methylene))bis(azanediyl))bis(oxetane-3-carboxylic acid)], for which the EC50 was at least 50 µM. With `CNC(=O)[C@H](C)NCc1cc(Cl)c(OCc2cccc(-c3cccc(COc4nc(OC)c(CN[C@@H](C)C(=O)NC)cc4Cl)c3C)c2C)nc1OC` [Example 88, (2S,2′S)-2,2′-((((((2,2′-dimethyl-[1,1′-biphenyl]-3,3′-diyl)bis(methylene))bis(oxy))bis(5-chloro-2-methoxypyridine-6,3-diyl))bis(methylene))bis(azanediyl))bis(N-methylpropanamide)], the EC50 is 4.15 µM.

Take `COC(=O)[C@@H](C)NCc1cc(Cl)c(OCc2cccc(-c3cccc(COc4nc(OC)c(CN[C@H](C)C(=O)OC)cc4Cl)c3C)c2C)nc1OC` [Example 89, Dimethyl 2,2′-((((((2,2′-dimethyl-[1,1′-biphenyl]-3,3′-diyl)bis(methylene))bis(oxy))bis(5-chloro-2-methoxypyridine-6,3-diyl))bis(methylene))bis(azanediyl))(2R,2′R)-dipropionate]: the half-maximal effective concentration (EC50) was 0.67 µM. The figure for `Cc1c(COc2cc(OCc3cncc(C#N)c3)c(CN[C@@H](C)C(=O)O)cc2Cl)cccc1-c1cccc(-c2ccc(OCCN[C@@H](C)C(=O)O)c(C(F)(F)F)c2)c1C` [Example 95, (4-((4″-(2-(((S)-1-carboxyethyl)amino)ethoxy)-2,2′-dimethyl-3″-(trifluoromethyl)-[1,1′:3′,1″-terphenyl]-3-yl)methoxy)-5-chloro-2-((5-cyanopyridin-3-yl)methoxy)benzyl)-L-alanine] is 0.639 µM. Turning to `COc1nc(OCc2cccc(-c3cccc(COc4nc(OC)c(CNC(C)(C)C(=O)O)cc4Cl)c3C)c2C)c(Cl)cc1CN` [Example 96, 2-(((6-((3′-(((5-(aminomethyl)-3-chloro-6-methoxypyridin-2-yl)oxy)methyl)-2,2′-dimethyl-[1,1′-biphenyl]-3-yl)methoxy)-5-chloro-2-methoxypyridin-3-yl)methyl)amino)-2-methylpropanoic acid], the EC50 came out at 0.912 µM.

As for `COc1nc(OCc2cccc(-c3cccc(COc4nc(OC)c(CNC(C)(C)C(=O)O)cc4Cl)c3C)c2C)c(Cl)cc1CNC(C)(C)C(=O)O` [Example 97, 2,2′-((((((2,2′-dimethyl-[1,1′-biphenyl]-3,3′-diyl)bis(methylene))bis(oxy))bis(5-chloro-2-methoxypyridine-6,3-diyl))bis(methylene))bis(azanediyl))bis(2-methylpropanoic acid)], the EC50 was found to be 0.028 µM. For the molecule `COc1nc(OCc2cccc(-c3cccc(COc4nc(OC)c(CN[C@@H](C)C(=O)O)cc4Cl)c3C)c2C)c(Cl)cc1CN[C@@H](C)C(=O)O` [Example 98, (2S,2′S)-2,2′-((((((2,2′-dimethyl-[1,1′-biphenyl]-3,3′-diyl)bis(methylene))bis(oxy))bis(5-chloro-2-methoxypyridine-6,3-diyl))bis(methylene))bis(azanediyl))dipropionic acid], the EC50 stood at 0.07 µM. On to `CC[C@@H](NCc1cc(Cl)c(OCc2cccc(-c3cccc(COc4nc(OC)c(CN[C@H](CC)C(=O)O)cc4Cl)c3C)c2C)nc1OC)C(=O)O` [Example 99, (2R,2′R)-2,2′-((((((2,2′-dimethyl-[1,1′-biphenyl]-3,3′-diyl)bis(methylene))bis(oxy))bis(5-chloro-2-methoxypyridine-6,3-diyl))bis(methylene))bis(azanediyl))dibutyric acid], for which the EC50 was 0.157 µM.

In the case of `COC(=O)[C@H](C)NCc1cc(Cl)c(OCc2cccc(-c3cccc(COc4nc(OC)c(CN[C@@H](C)C(=O)OC)cc4Cl)c3C)c2C)nc1OC` [Example 100, Dimethyl 2,2′-((((((2,2′-dimethyl-[1,1′-biphenyl]-3,3′-diyl)bis(methylene))bis(oxy))bis(5-chloro-2-methoxypyridine-6,3-diyl))bis(methylene))bis(azanediyl))(2S,2′S)-dipropionate], the EC50 amounted to 0.482 µM. With `COc1nc(OCc2cccc(-c3cccc(COc4nc(OC)c(CN[C@@H](C)C(N)=O)cc4Cl)c3C)c2C)c(Cl)cc1CN[C@@H](C)C(N)=O` [Example 101, (2S,2′S)-2,2′-((((((2,2′-dimethyl-[1,1′-biphenyl]-3,3′-diyl)bis(methylene))bis(oxy))bis(5-chloro-2-methoxypyridine-6,3-diyl))bis(methylene))bis(azanediyl))dipropanamide] the figure was 1.8 µM; with `COc1nc(O[C@H]2CCc3c(-c4cccc(-c5ccc(OCCNCCO)cc5)c4C)cccc32)ccc1CNCC(=O)O` [Example 102, (S)-((6-((4-(4′-(2-((2-hydroxyethyl)amino)ethoxy)-2-methyl-[1,1′-biphenyl]-3-yl)-2,3-dihydro-1H-inden-1-yl)oxy)-2-methoxypyridin-3-yl)methyl)glycine], 13.2 µM.

On to `COc1nc(O[C@H]2CCc3c(-c4cccc(-c5ccc(OCCNC[C@@H](O)CC(=O)O)cc5)c4C)cccc32)ccc1CNCC(=O)O` [Example 103, (S)-4-((2-((3′-((S)-1-((5-(((carboxymethyl)amino)methyl)-6-methoxypyridin-2-yl)oxy)-2,3-dihydro-1H-inden-4-yl)-2′-methyl-[1,1′-biphenyl]-4-yl)oxy)ethyl)amino)-3-hydroxybutanoic acid], for which the EC50 stood at 14.9 µM.

Regarding `COc1nc(OCc2cccc(-c3cccc(COc4nc(OC)c([C@@H]5NCC[C@@H]5C(=O)O)cc4Cl)c3C)c2C)c(Cl)cc1[C@@H]1NCC[C@@H]1C(=O)O` [Example 104, (2R,2′R,3S,3′S)-2,2′-((((2,2′-dimethyl-[1,1′-biphenyl]-3,3′-diyl)bis(methylene))bis(oxy))bis(5-chloro-2-methoxypyridine-6,3-diyl))bis(pyrrolidine-3-carboxylic acid)], the EC50 was at least 50 µM.
